Source: PubChem BioAssay AID2060622 (Molecular Pharmacology Branch, DTP, NCI, 2025)

Tested on: 242566-281-R-J2-PDC complex spheroid viability
Test: Anticancer human tumor 242566-281-R-J2-PDC patient-derived pancreatic carcinoma cell line growth inhibition [CLK]
Settings: for IC50: curve of first compound; for viability, T/C: stronger effect = lower value
Method in brief: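 Multi-cell-type spheroids combined patient-derived tumor cells with HUVEC endothelial cells and human mesenchymal stem cells. Paired agents were dosed in half-log steps down from about clinical Cmax, or from 10 microM where Cmax was unknown.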

[1] = second compound 0.0316 µM, first compound 0.0316 µM
[2] = second compound 0.0316 µM, first compound 0.1 µM
[3] = second compound 0.0316 µM, first compound 0.316 µM
[4] = second compound 0.0316 µM, first compound 1 µM
[5] = second compound 0.0316 µM, first compound 3.16 µM
[6] = second compound 0.0316 µM, first compound 10 µM
[7] = second compound 0.1 µM, first compound 0.0316 µM
[8] = second compound 0.1 µM, first compound 0.1 µM
[9] = second compound 0.1 µM, first compound 0.316 µM
[10] = second compound 0.1 µM, first compound 1 µM
[11] = second compound 0.1 µM, first compound 3.16 µM
[12] = second compound 0.1 µM, first compound 10 µM
[13] = second compound 0.316 µM, first compound 0.0316 µM
[14] = second compound 0.316 µM, first compound 0.1 µM
[15] = second compound 0.316 µM, first compound 0.316 µM
[16] = second compound 0.316 µM, first compound 1 µM
[17] = second compound 0.316 µM, first compound 3.16 µM
[18] = second compound 0.316 µM, first compound 10 µM
[19] = second compound 1 µM, first compound 0.0316 µM
[20] = second compound 1 µM, first compound 0.1 µM
[21] = second compound 1 µM, first compound 0.316 µM
[22] = second compound 1 µM, first compound 1 µM
[23] = second compound 1 µM, first compound 3.16 µM
[24] = second compound 1 µM, first compound 10 µM
[25] = second compound 3.16 µM, first compound 0.0316 µM
[26] = second compound 3.16 µM, first compound 0.1 µM
[27] = second compound 3.16 µM, first compound 0.316 µM
[28] = second compound 3.16 µM, first compound 1 µM
[29] = second compound 3.16 µM, first compound 3.16 µM
[30] = second compound 3.16 µM, first compound 10 µM
[31] = second compound 10 µM, first compound 0.0316 µM
[32] = second compound 10 µM, first compound 0.1 µM
[33] = second compound 10 µM, first compound 0.316 µM
[34] = second compound 10 µM, first compound 1 µM
[35] = second compound 10 µM, first compound 3.16 µM
[36] = second compound 10 µM, first compound 10 µM
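Also: spheroids exposed to compounds for 7 days before readout.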
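For viability, T/C in this document: 100% = DMSO vehicle control wells.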

CC(C)CC(NC(=O)C(Cc1ccccc1)NC(=O)c1cnccn1)B(O)O (stereo unspecified) + CNC(=O)c1ccc(Nc2nc(OC3CCCC3)c3c(-c4ccc5nc(C)oc5c4)c[nH]c3n2)c(OC)c1
IC50 (second compound 0.0316 µM): 4.24 nM
IC50 (second compound 0.1 µM): 3.81 nM
IC50 (second compound 0.316 µM): 2.77 nM
IC50 (second compound 1 µM): 1.56 nM
IC50 (second compound 3.16 µM): 1.19 nM
IC50 (second compound 10 µM): 1.15 nM
viability, T/C (second compound 0.0316 µM, first compound 0.000949 µM): 82.2%
viability, T/C (second compound 0.0316 µM, first compound 0.003 µM): 71.1%
viability, T/C (second compound 0.0316 µM, first compound 0.00949 µM): 0.73%
viability, T/C (second compound 0.0316 µM, first compound 0.03 µM): 0.63%
viability, T/C (second compound 0.0316 µM, first compound 0.0949 µM): 0.4%
viability, T/C (second compound 0.0316 µM, first compound 0.3 µM): 0.56%
viability, T/C (second compound 0.1 µM, first compound 0.000949 µM): 83.3%
viability, T/C (second compound 0.1 µM, first compound 0.003 µM): 62.8%
viability, T/C (second compound 0.1 µM, first compound 0.00949 µM): 0.92%
viability, T/C (second compound 0.1 µM, first compound 0.03 µM): 0.76%
viability, T/C (second compound 0.1 µM, first compound 0.0949 µM): 0.35%
viability, T/C (second compound 0.1 µM, first compound 0.3 µM): 0.57%
viability, T/C (second compound 0.316 µM, first compound 0.000949 µM): 83%
viability, T/C (second compound 0.316 µM, first compound 0.003 µM): 47.5%
viability, T/C (second compound 0.316 µM, first compound 0.00949 µM): 0.7%
viability, T/C (second compound 0.316 µM, first compound 0.03 µM): 0.78%
viability, T/C (second compound 0.316 µM, first compound 0.0949 µM): 0.3%
viability, T/C (second compound 0.316 µM, first compound 0.3 µM): 0.78%
viability, T/C (second compound 1 µM, first compound 0.000949 µM): 73.2%
viability, T/C (second compound 1 µM, first compound 0.003 µM): 19.7%
viability, T/C (second compound 1 µM, first compound 0.00949 µM): 0.52%
viability, T/C (second compound 1 µM, first compound 0.03 µM): 0.28%
viability, T/C (second compound 1 µM, first compound 0.0949 µM): 0.45%
viability, T/C (second compound 1 µM, first compound 0.3 µM): 0.4%
viability, T/C (second compound 3.16 µM, first compound 0.000949 µM): 60.6%
viability, T/C (second compound 3.16 µM, first compound 0.003 µM): 6.63%
viability, T/C (second compound 3.16 µM, first compound 0.00949 µM): 0.34%
viability, T/C (second compound 3.16 µM, first compound 0.03 µM): 0.29%
viability, T/C (second compound 3.16 µM, first compound 0.0949 µM): 0.35%
viability, T/C (second compound 3.16 µM, first compound 0.3 µM): 0.37%
viability, T/C (second compound 10 µM, first compound 0.000949 µM): 59.4%
viability, T/C (second compound 10 µM, first compound 0.003 µM): 3.83%
viability, T/C (second compound 10 µM, first compound 0.00949 µM): 0.57%
viability, T/C (second compound 10 µM, first compound 0.03 µM): 0.53%
viability, T/C (second compound 10 µM, first compound 0.0949 µM): 0.43%
viability, T/C (second compound 10 µM, first compound 0.3 µM): 0.42%

CC1COCCN1c1cc(C2(S(C)(=N)=O)CC2)nc(-c2ccnc3[nH]ccc23)n1 (stereo unspecified) + CNC(=O)c1ccc(Nc2nc(OC3CCCC3)c3c(-c4ccc5nc(C)oc5c4)c[nH]c3n2)c(OC)c1
IC50 (second compound 0.0316 µM): > 10000 nM
IC50 (second compound 0.1 µM): > 10000 nM
IC50 (second compound 0.316 µM): 7160 nM
IC50 (second compound 1 µM): 763 nM
IC50 (second compound 3.16 µM): 192 nM
IC50 (second compound 10 µM): 61.3 nM
viability, T/C [1]: 89%
viability, T/C [2]: 105%
viability, T/C [3]: 117%
viability, T/C [4]: 118%
viability, T/C [5]: 92.2%
viability, T/C [6]: 61%
viability, T/C [7]: 84.7%
viability, T/C [8]: 90.1%
viability, T/C [9]: 91.6%
viability, T/C [10]: 104%
viability, T/C [11]: 93%
viability, T/C [12]: 55.6%
viability, T/C [13]: 76.8%
viability, T/C [14]: 77.8%
viability, T/C [15]: 80.3%
viability, T/C [16]: 70.8%
viability, T/C [17]: 71%
viability, T/C [18]: 41.7%
viability, T/C [19]: 73.9%
viability, T/C [20]: 69.7%
viability, T/C [21]: 55.1%
viability, T/C [22]: 49.4%
viability, T/C [23]: 34.3%
viability, T/C [24]: 17.7%
viability, T/C [25]: 55.2%
viability, T/C [26]: 55.1%
viability, T/C [27]: 46.9%
viability, T/C [28]: 36.2%
viability, T/C [29]: 24.6%
viability, T/C [30]: 13.4%
viability, T/C [31]: 52.5%
viability, T/C [32]: 47.1%
viability, T/C [33]: 43.8%
viability, T/C [34]: 33.2%
viability, T/C [35]: 22.1%
viability, T/C [36]: 13.5%

O=C(c1cc(Cc2n[nH]c(=O)c3ccccc23)ccc1F)N1CCN(C(=O)C2CC2)CC1 + CNC(=O)c1ccc(Nc2nc(OC3CCCC3)c3c(-c4ccc5nc(C)oc5c4)c[nH]c3n2)c(OC)c1
IC50 (second compound 0.0316 µM): > 10000 nM
IC50 (second compound 0.1 µM): > 10000 nM
IC50 (second compound 0.316 µM): > 10000 nM
IC50 (second compound 1 µM): > 10000 nM
IC50 (second compound 3.16 µM): > 10000 nM
IC50 (second compound 10 µM): > 10000 nM
viability, T/C [1]: 94.9%
viability, T/C [2]: 110%
viability, T/C [3]: 96.1%
viability, T/C [4]: 115%
viability, T/C [5]: 95.6%
viability, T/C [6]: 81.9%
viability, T/C [7]: 97.9%
viability, T/C [8]: 98.4%
viability, T/C [9]: 117%
viability, T/C [10]: 98.4%
viability, T/C [11]: 88.4%
viability, T/C [12]: 70.3%
viability, T/C [13]: 92.6%
viability, T/C [14]: 83.6%
viability, T/C [15]: 87.6%
viability, T/C [16]: 92.7%
viability, T/C [17]: 92%
viability, T/C [18]: 65%
viability, T/C [19]: 81.9%
viability, T/C [20]: 57.1%
viability, T/C [21]: 65.5%
viability, T/C [22]: 69.8%
viability, T/C [23]: 70.5%
viability, T/C [24]: 55.3%
viability, T/C [25]: 63%
viability, T/C [26]: 60%
viability, T/C [27]: 58.6%
viability, T/C [28]: 51.7%
viability, T/C [29]: 52.2%
viability, T/C [30]: 56.2%
viability, T/C [31]: 52.5%
viability, T/C [32]: 52.2%
viability, T/C [33]: 52.7%
viability, T/C [34]: 52.5%
viability, T/C [35]: 46%
viability, T/C [36]: 57.6%
